Results: US20230085307A1, “PYRIDAZINONE COMPOUND AND HERBICIDE” (NISSAN CHEMICAL CORPORATION, priority 2019, published 2023)

Key:
velvetleaf [1] = assay: Test Example 4: herbicidal effect by soil treatment (Table 19, symbol M); type: in vivo, velvetleaf (Abutilon theophrasti)
How it was run: (§1)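 Scoring uses the grading scale of an earlier test, three weeks post-application. Treatment consists of spraying a diluted emulsion formulation across the surface of sterilized diluvial soil in which seeds are buried near 1.5 cm deep; boxes are kept in a greenhouse between 25° C. and 30° C.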

wild oat [2] = assay: Test Example 5: herbicidal effect by foliage application, plastic box (Table 20, symbol I); type: in vivo, wild oat (Avena fatua); settings: evaluated three weeks after application
How it was run: (§2)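 Post-emergence foliar test in sterilized diluvial soil. Compound applied as water-diluted emulsion at a predetermined rate to 14-day-old plants; evaluation at three weeks.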

lambsquarters [3] = assay: Test Example 5: herbicidal effect by foliage application, plastic box (Table 20, symbol O); type: in vivo, lambsquarters (Chenopodium album); settings: foliage application, 320 g/ha, evaluated three weeks after application
How it was run: as §2

Italian ryegrass [4] = assay: Test Example 5: herbicidal effect by foliage application, plastic box (Table 20, symbol K); type: in vivo, Italian ryegrass (Lolium multiflorum); settings: evaluated three weeks after application
How it was run: as §2

wild oat [5] = assay: Test Example 4: herbicidal effect by soil treatment (Table 19, symbol I); type: in vivo, wild oat (Avena fatua)
How it was run: as §1

barnyard grass [6] = assay: Test Example 3: herbicidal effect by foliage application, Wagner pot (Table 18, symbol H); type: in vivo, barnyard grass (Echinochloa crus-galli)
How it was run: (§3)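 Plants were sown in alluvial soil held under 0.1–0.5 cm standing water and grown 14 days in a greenhouse at 25–30 °C. An emulsifiable formulation, water-diluted to the set dose, was then sprayed onto the foliage, and effects were scored three weeks later using previously defined criteria.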

blackgrass [7] = assay: Test Example 4: herbicidal effect by soil treatment (Table 19, symbol J); type: in vivo, blackgrass (Alopecurus myosuroides)
How it was run: as §1

barnyard grass [8] = assay: Test Example 4: herbicidal effect by soil treatment (Table 19, symbol H); type: in vivo, barnyard grass (Echinochloa crus-galli)
How it was run: as §1

redroot pigweed [9] = assay: Test Example 4: herbicidal effect by soil treatment (Table 19, symbol N); type: in vivo, redroot pigweed (Amaranthus retroflexus)
How it was run: as §1

Chinese sprangletop = assay: Test Example 3: herbicidal effect by foliage application, Wagner pot (Table 18, symbol D); type: in vivo, chinese sprangletop (Leptochloa chinensis)
How it was run: as §3

redroot pigweed [10] = assay: Test Example 5: herbicidal effect by foliage application, plastic box (Table 20, symbol N); type: in vivo, redroot pigweed (Amaranthus retroflexus); settings: evaluated three weeks after application
How it was run: as §2

windgrass [11] = assay: Test Example 5: herbicidal effect by foliage application, plastic box (Table 20, symbol L); type: in vivo, windgrass (Apera spica-venti); settings: foliage application, 320 g/ha, evaluated three weeks after application
How it was run: as §2

windgrass [12] = assay: Test Example 4: herbicidal effect by soil treatment (Table 19, symbol L); type: in vivo, windgrass (Apera spica-venti)
How it was run: as §1

green foxtail [13] = assay: Test Example 4: herbicidal effect by soil treatment (Table 19, symbol G); type: in vivo, green foxtail (Setaria viridis)
How it was run: as §1

persian speedwell [14] = assay: Test Example 5: herbicidal effect by foliage application, plastic box (Table 20, symbol R); type: in vivo, Persian speedwell (Veronica persica); settings: evaluated three weeks after application
How it was run: as §2

green foxtail [15] = assay: Test Example 5: herbicidal effect by foliage application, plastic box (Table 20, symbol G); type: in vivo, green foxtail (Setaria viridis); settings: evaluated three weeks after application
How it was run: as §2

southern crabgrass [16] = assay: Test Example 4: herbicidal effect by soil treatment (Table 19, symbol F); type: in vivo, southern crabgrass (Digitaria ciliaris)
How it was run: as §1

blackgrass [17] = assay: Test Example 5: herbicidal effect by foliage application, plastic box (Table 20, symbol J); type: in vivo, blackgrass (Alopecurus myosuroides); settings: evaluated three weeks after application
How it was run: as §2

persian speedwell [18] = assay: Test Example 4: herbicidal effect by soil treatment (Table 19, symbol R); type: in vivo, Persian speedwell (Veronica persica)
How it was run: as §1

velvetleaf [19] = assay: Test Example 5: herbicidal effect by foliage application, plastic box (Table 20, symbol M); type: in vivo, velvetleaf (Abutilon theophrasti); settings: evaluated three weeks after application
How it was run: as §2

southern crabgrass [20] = assay: Test Example 5: herbicidal effect by foliage application, plastic box (Table 20, symbol F); type: in vivo, southern crabgrass (Digitaria ciliaris); settings: evaluated three weeks after application
How it was run: as §2

lambsquarters [21] = assay: Test Example 4: herbicidal effect by soil treatment (Table 19, symbol O); type: in vivo, lambsquarters (Chenopodium album)
How it was run: as §1

rice flat sedge = assay: Test Example 3: herbicidal effect by foliage application, Wagner pot (Table 18, symbol E); type: in vivo, rice flat sedge (Cyperus iria)
How it was run: as §3

Italian ryegrass [22] = assay: Test Example 4: herbicidal effect by soil treatment (Table 19, symbol K); type: in vivo, Italian ryegrass (Lolium multiflorum)
How it was run: as §1

chickweed [23] = assay: Test Example 5: herbicidal effect by foliage application, plastic box (Table 20, symbol P); type: in vivo, common chickweed (Stellaria media); settings: evaluated three weeks after application
How it was run: as §2

barnyard grass [24] = assay: Test Example 5: herbicidal effect by foliage application, plastic box (Table 20, symbol H); type: in vivo, barnyard grass (Echinochloa crus-galli); settings: evaluated three weeks after application
How it was run: as §2

chickweed [25] = assay: Test Example 4: herbicidal effect by soil treatment (Table 19, symbol P); type: in vivo, common chickweed (Stellaria media); settings: amount of applied herbicide 272 g/ha
How it was run: as §1

[26] = amount of applied herbicide 320 g/ha
[27] = amount of applied herbicide 272 g/ha
[28] = amount of applied herbicide 272 g/ha, foliage application after 14-day growth

Question: What does the source list for `CCCC(=O)Oc1c(C)nn(C)c(=O)c1-c1c(-c2cccc(OC(C)C)c2)sc2ccc(F)cc12` [2-216]?
Answer: M: velvetleaf, herbicidal effect rating (velvetleaf [1]; [26]): 2 (Herbicidal rate of 20% or more and less than 40%); herbicidal effect on I: wild oat (criteria 0-5) (wild oat [2]; foliage application, 320 g/ha): 0 (Herbicidal rate of 5% or less (almost no effect)); herbicidal effect on O: lambsquarters (criteria 0-5) (lambsquarters [3]): 3 (Herbicidal rate of 40% or more and less than 70%); herbicidal effect on K: Italian ryegrass (criteria 0-5) (Italian ryegrass [4]; foliage application, 320 g/ha): 4 (Herbicidal rate of 70% or more and less than 90%); I: wild oat, herbicidal effect rating (wild oat [5]; [26]): 0 (Herbicidal rate of 5% or less (almost no effect)); herbicidal effect on H: barnyard grass (barnyard grass [6]; [26]): 5 (Herbicidal rate of 90% or more (almost completely withered)); J: blackgrass, herbicidal effect rating (blackgrass [7]; [26]): 0 (Herbicidal rate of 5% or less (almost no effect)); H: barnyard grass, herbicidal effect rating (barnyard grass [8]; [26]): 2 (Herbicidal rate of 20% or more and less than 40%); N: redroot pigweed, herbicidal effect rating (redroot pigweed [9]; [26]): 3 (Herbicidal rate of 40% or more and less than 70%); herbicidal effect on D: Chinese sprangletop (Chinese sprangletop; [26]): 3 (Herbicidal rate of 40% or more and less than 70%); herbicidal effect on N: redroot pigweed (criteria 0-5) (redroot pigweed [10]; foliage application, 320 g/ha): 5 (Herbicidal rate of 90% or more (almost completely withered)); herbicidal effect on L: windgrass (criteria 0-5) (windgrass [11]): 3 (Herbicidal rate of 40% or more and less than 70%); L: windgrass, herbicidal effect rating (windgrass [12]; [26]): 0 (Herbicidal rate of 5% or less (almost no effect)); G: green foxtail, herbicidal effect rating (green foxtail [13]; [26]): 2 (Herbicidal rate of 20% or more and less than 40%); herbicidal effect on R: persian speedwell (criteria 0-5) (persian speedwell [14]; foliage application, 320 g/ha): 5 (Herbicidal rate of 90% or more (almost completely withered)); herbicidal effect on G: green foxtail (criteria 0-5) (green foxtail [15]; foliage application, 320 g/ha): 5 (Herbicidal rate of 90% or more (almost completely withered)); F: southern crabgrass, herbicidal effect rating (southern crabgrass [16]; [26]): 3 (Herbicidal rate of 40% or more and less than 70%); herbicidal effect on J: blackgrass (criteria 0-5) (blackgrass [17]; foliage application, 320 g/ha): 0 (Herbicidal rate of 5% or less (almost no effect)); R: persian speedwell, herbicidal effect rating (persian speedwell [18]; [26]): 5 (Herbicidal rate of 90% or more (almost completely withered)); herbicidal effect on M: velvetleaf (criteria 0-5) (velvetleaf [19]; foliage application, 320 g/ha): 3 (Herbicidal rate of 40% or more and less than 70%); herbicidal effect on F: southern crabgrass (criteria 0-5) (southern crabgrass [20]; foliage application, 320 g/ha): 5 (Herbicidal rate of 90% or more (almost completely withered)); O: lambsquarters, herbicidal effect rating (lambsquarters [21]; [26]): 0 (Herbicidal rate of 5% or less (almost no effect)); herbicidal effect on E: rice flat sedge (rice flat sedge; [26]): 4 (Herbicidal rate of 70% or more and less than 90%); K: Italian ryegrass, herbicidal effect rating (Italian ryegrass [22]; [26]): 4 (Herbicidal rate of 70% or more and less than 90%); herbicidal effect on P: chickweed (criteria 0-5) (chickweed [23]; foliage application, 320 g/ha): 5 (Herbicidal rate of 90% or more (almost completely withered)); herbicidal effect on H: barnyard grass (criteria 0-5) (barnyard grass [24]; foliage application, 320 g/ha): 4 (Herbicidal rate of 70% or more and less than 90%)

Question: Which results are given for `CCCC(=O)Oc1c(C)nn(C)c(=O)c1-c1c(-c2ccccc2OC(F)F)sc2cc(F)c(F)cc12` [5-022]?
Answer: M: velvetleaf, herbicidal effect grade (velvetleaf [1]; [27]): 3 (Herbicidal rate of 40% or more and less than 70%); Herbicidal effect by foliage application, I: wild oat (wild oat [2]; [28]): 0 (Herbicidal rate of 5% or less (almost no effect)); Herbicidal effect by foliage application, K: Italian ryegrass (Italian ryegrass [4]; [28]): 0 (Herbicidal rate of 5% or less (almost no effect)); I: wild oat, herbicidal effect grade (wild oat [5]; [27]): 0 (Herbicidal rate of 5% or less (almost no effect)); herbicidal effect on barnyard grass (H) (barnyard grass [6]; 272 g/ha): 4 (Herbicidal rate of 70% or more and less than 90%); P: chickweed, herbicidal effect grade (chickweed [25]): 3 (Herbicidal rate of 40% or more and less than 70%); J: blackgrass, herbicidal effect grade (blackgrass [7]; [27]): 0 (Herbicidal rate of 5% or less (almost no effect)); H: barnyard grass, herbicidal effect grade (barnyard grass [8]; [27]): 0 (Herbicidal rate of 5% or less (almost no effect)); N: redroot pigweed, herbicidal effect grade (redroot pigweed [9]; [27]): 4 (Herbicidal rate of 70% or more and less than 90%); herbicidal effect on Chinese sprangletop (D) (Chinese sprangletop; 272 g/ha): 3 (Herbicidal rate of 40% or more and less than 70%); Herbicidal effect by foliage application, N: redroot pigweed (redroot pigweed [10]; [28]): 5 (Herbicidal rate of 90% or more (almost completely withered)); L: windgrass, herbicidal effect grade (windgrass [12]; [27]): 0 (Herbicidal rate of 5% or less (almost no effect)); G: green foxtail, herbicidal effect grade (green foxtail [13]; [27]): 3 (Herbicidal rate of 40% or more and less than 70%); Herbicidal effect by foliage application, R: persian speedwell (persian speedwell [14]; [28]): 4 (Herbicidal rate of 70% or more and less than 90%); Herbicidal effect by foliage application, G: green foxtail (green foxtail [15]; [28]): 5 (Herbicidal rate of 90% or more (almost completely withered)); F: southern crabgrass, herbicidal effect grade (southern crabgrass [16]; [27]): 1 (Herbicidal rate of 5% or more and less than 20%); Herbicidal effect by foliage application, J: blackgrass (blackgrass [17]; [28]): 1 (Herbicidal rate of 5% or more and less than 20%); R: persian speedwell, herbicidal effect grade (persian speedwell [18]; [27]): 3 (Herbicidal rate of 40% or more and less than 70%); Herbicidal effect by foliage application, M: velvetleaf (velvetleaf [19]; [28]): 5 (Herbicidal rate of 90% or more (almost completely withered)); Herbicidal effect by foliage application, F: southern crabgrass (southern crabgrass [20]; [28]): 4 (Herbicidal rate of 70% or more and less than 90%); O: lambsquarters, herbicidal effect grade (lambsquarters [21]; [27]): 3 (Herbicidal rate of 40% or more and less than 70%); herbicidal effect on rice flat sedge (E) (rice flat sedge; 272 g/ha): 3 (Herbicidal rate of 40% or more and less than 70%); K: Italian ryegrass, herbicidal effect grade (Italian ryegrass [22]; [27]): 0 (Herbicidal rate of 5% or less (almost no effect)); Herbicidal effect by foliage application, P: chickweed (chickweed [23]; [28]): 5 (Herbicidal rate of 90% or more (almost completely withered)); Herbicidal effect by foliage application, H: barnyard grass (barnyard grass [24]; [28]): 3 (Herbicidal rate of 40% or more and less than 70%)
